Several values for one entry are separate records, joined by “and”; a condition that tells them apart may be missing. Identical values can stand only once. Inconclusive results and toxic doses are left out.

This experiment relates to P388 leukemia ip, CD2F1 mice, survival T/C. The experiment is described as follows: NCI In Vivo Anticancer Drug Screen. Data for tumor model P388 Leukemia (intraperitoneal) in CD2F1 (CDF1) mice. Conditions: endpoint: median survival time, higher = longer survival. A digest of the protocol:
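Mice carrying the transplanted tumor received test compound or vehicle. Survival was recorded in each group, and the value is the treated-group measurement divided by that of the vehicle-treated control group.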

Where [1] appears, read: dose: 50.0 mg/kg/injection, schedule: Q01DX009 (ip), vehicle: saline.
Where [2] appears, read: dose: 60.0 mg/kg/injection, schedule: Q01DX005 (ip), vehicle: saline with Tween-80.
The mark [3] stands for this setting: dose: 120.0 mg/kg/injection, schedule: Q01DX005 (ip), vehicle: saline with Tween-80.
Setting [4] is: dose: 240.0 mg/kg/injection, schedule: Q01DX005 (ip), vehicle: saline with Tween-80.
[5] abbreviates: dose: 50.0 mg/kg/injection, schedule: Q01DX005 (ip), vehicle: Klucel (hydroxypropylcellulose) (HPC).
[6] abbreviates: dose: 100.0 mg/kg/injection, schedule: Q01DX005 (ip), vehicle: Klucel (hydroxypropylcellulose) (HPC).
The mark [7] stands for this setting: dose: 200.0 mg/kg/injection, schedule: Q01DX005 (ip), vehicle: Klucel (hydroxypropylcellulose) (HPC).

`Nc1n[n+](-c2ccccc2)no1`: the T/C is, setting by setting: (dose: 1.56 mg/kg/injection, schedule: Q01DX009 (ip), vehicle: water) 110 % of control; (dose: 1.56 mg/kg/injection, schedule: Q03HX015 (ip), vehicle: water) 117 % of control; (dose: 3.12 mg/kg/injection, schedule: Q01DX005 (ip), vehicle: water) 104 % of control; (dose: 3.12 mg/kg/injection, schedule: Q03HX015 (ip), vehicle: water) 119 % of control; (dose: 3.13 mg/kg/injection, schedule: Q01DX009 (ip), vehicle: water) 104 % of control and 108 % of control and 117 % of control; (dose: 3.13 mg/kg/injection, schedule: Q03HX015 (ip), vehicle: water) 115 % of control. The T/C was 123 % of control (dose: 6.25 mg/kg/injection, schedule: Q01DX009 (ip), vehicle: saline); 117 % of control and 118 % of control (dose: 6.25 mg/kg/injection, schedule: Q01DX009 (ip), vehicle: water); 112 % of control (dose: 6.25 mg/kg/injection, schedule: Q03HX003 (ip), vehicle: water); 117 % of control (dose: 12.5 mg/kg/injection, schedule: Q03HX003 (ip), vehicle: water); 104 % of control (dose: 25.0 mg/kg/injection, schedule: Q01DX001 (ip), vehicle: water); 178 % of control (dose: 25.0 mg/kg/injection, schedule: Q01DX009 (ip), vehicle: saline). Moreover, the T/C by setting is: (dose: 25.0 mg/kg/injection, schedule: Q01DX009 (ip), vehicle: water) 169 % of control and 189 % of control and 195 % of control; (dose: 25.0 mg/kg/injection, schedule: Q03HX003 (ip), vehicle: water) 117 % of control; (dose: 25.0 mg/kg/injection, schedule: Q03HX015 (ip), vehicle: water) 161 % of control and 183 % of control; (dose: 50.0 mg/kg/injection, schedule: Q01DX001 (ip), vehicle: water) 120 % of control; under setting [1], 214 % of control; (dose: 50.0 mg/kg/injection, schedule: Q03HX003 (ip), vehicle: water) 123 % of control. In addition, the T/C (dose: 100.0 mg/kg/injection, schedule: Q01DX001 (ip), vehicle: water) was 114 % of control.
With `O=Cc1ccccc1-c1ccccc1C=O`, the T/C runs as follows: (dose: 100.0 mg/kg/injection, schedule: Q04DX002 (ip), vehicle: saline with Tween-80) 106 % of control; (dose: 200.0 mg/kg/injection, schedule: Q04DX002 (ip), vehicle: saline with Tween-80) 103 % of control.
Consider `Nc1ncnc2c1c1c(=O)[nH]c(=O)[nH]c1n2C1OC(CO)C(O)C1O` (stereo not drawn), for which the T/C reads like this: (dose: 25.0 mg/kg/injection, schedule: Q01DX005 (ip), vehicle: distilled water + Tween-80) 113 % of control; (dose: 50.0 mg/kg/injection, schedule: Q01DX005 (ip), vehicle: distilled water + Tween-80) 110 % of control; (dose: 100.0 mg/kg/injection, schedule: Q01DX005 (ip), vehicle: distilled water + Tween-80) 111 % of control; (dose: 200.0 mg/kg/injection, schedule: Q01DX005 (ip), vehicle: distilled water + Tween-80) 111 % of control; (dose: 400.0 mg/kg/injection, schedule: Q01DX005 (ip), vehicle: distilled water + Tween-80) 121 % of control.
Consider `CCOC(=O)Nc1nc2ccc([N+](=O)[O-])cc2s1`, for which the T/C by setting is: (dose: 6.25 mg/kg/injection, schedule: Q01DX009 (ip), vehicle: Klucel (hydroxypropylcellulose) (HPC)) 104 % of control; (dose: 12.5 mg/kg/injection, schedule: Q01DX009 (ip), vehicle: Klucel (hydroxypropylcellulose) (HPC)) 107 % of control; (dose: 25.0 mg/kg/injection, schedule: Q01DX009 (ip), vehicle: Klucel (hydroxypropylcellulose) (HPC)) 105 % of control.
Take `Cc1c2c(c(C)c3c1C(=O)c1cc4c(cc1C3=O)OCO4)OC(C)(C)O2`: the T/C by setting is: under setting [2], 89 % of control; under setting [3], 94 % of control; under setting [4], 100 % of control.
Regarding `CN1CC[As+](Cc2ccccc2)(c2ccccc2)CC1`, the T/C reads like this: (dose: 100.0 mg/kg/injection, schedule: Q01DX001 (ip), vehicle: saline) 87 % of control; (dose: 200.0 mg/kg/injection, schedule: Q01DX001 (ip), vehicle: saline) 102 % of control; (dose: 400.0 mg/kg/injection, schedule: Q01DX001 (ip), vehicle: saline) 104 % of control.
Turning to `Cc1ccoc1`, the T/C is 105 % of control (dose: 7.5 mg/kg/injection, schedule: Q01DX005 (ip), vehicle: saline with Tween-80); 100 % of control (dose: 15.0 mg/kg/injection, schedule: Q01DX005 (ip), vehicle: saline with Tween-80); 97 % of control (dose: 30.0 mg/kg/injection, schedule: Q01DX005 (ip), vehicle: saline with Tween-80); 98 % of control under setting [2]; 101 % of control under setting [3]; 106 % of control under setting [4].
Consider `CC1=NN(c2ccccc2)C(=O)C1=Nc1c(C)[nH]n(-c2ccccc2)c1=O`, for which the T/C (dose: 15.0 mg/kg/injection, schedule: Q01DX009 (ip), vehicle: saline with Tween-80) was 103 % of control; the T/C (dose: 30.0 mg/kg/injection, schedule: Q01DX009 (ip), vehicle: saline with Tween-80) was 101 % of control; the T/C (dose: 50.0 mg/kg/injection, schedule: Q01DX005 (ip), vehicle: saline with Tween-80) is 114 % of control and 96 % of control; the T/C (dose: 60.0 mg/kg/injection, schedule: Q01DX009 (ip), vehicle: saline with Tween-80) is 105 % of control; the T/C (dose: 100.0 mg/kg/injection, schedule: Q01DX005 (ip), vehicle: saline with Tween-80) was 104 % of control and 102 % of control; the T/C (dose: 200.0 mg/kg/injection, schedule: Q01DX005 (ip), vehicle: saline with Tween-80) was 98 % of control and 110 % of control.
`Cn1c(C2(C)C(=O)NC(=O)c3cnccc32)cc2ccccc21` (stereo not drawn): the T/C (dose: 100.0 mg/kg/injection, schedule: Q04DX002 (ip), vehicle: Klucel (hydroxypropylcellulose) (HPC)) was 103 % of control and the T/C (dose: 200.0 mg/kg/injection, schedule: Q04DX002 (ip), vehicle: Klucel (hydroxypropylcellulose) (HPC)) was 92 % of control.
Regarding `CC(=O)N1C2C3CCC(C)(OC3(C)C)C21` (stereo not drawn), the T/C is 107 % of control (dose: 50.0 mg/kg/injection, schedule: Q01DX005 (ip), vehicle: saline); 102 % of control (dose: 100.0 mg/kg/injection, schedule: Q01DX005 (ip), vehicle: saline); 110 % of control (dose: 200.0 mg/kg/injection, schedule: Q01DX005 (ip), vehicle: saline).
As for `CNC(=O)Sc1nnnc2ccccc12`, the T/C by setting is: (dose: 100.0 mg/kg/injection, schedule: Q01DX001 (ip), vehicle: saline with Tween-80) 109 % of control; (dose: 200.0 mg/kg/injection, schedule: Q01DX001 (ip), vehicle: saline with Tween-80) 104 % of control; (dose: 400.0 mg/kg/injection, schedule: Q01DX001 (ip), vehicle: saline with Tween-80) 118 % of control.
Take `COc1ccc(C(O)c2cc(C(F)(F)F)cc(C(F)(F)F)c2)cc1OC` (stereo not drawn): the T/C by setting is: under setting [5], 100 % of control; under setting [6], 92 % of control; under setting [7], 91 % of control.
`CCOC(=O)C1=C(C(=O)c2ccc(C)cc2)C(c2ccc(Cl)cc2Cl)C(C(=O)c2ccc(C)cc2)=C(C(=O)OCC)N1`: the T/C reads like this: under setting [2], 89 % of control; under setting [3], 98 % of control.
Turning to `CCCCCCCCCCCCCCCC[As](CCCCCCCCCCCCCCCC)SCC1OC(OC(C)=O)C(OC(C)=O)C(OC(C)=O)C1OC(C)=O` (stereo not drawn), the T/C was 114 % of control (dose: 25.0 mg/kg/injection, schedule: Q01DX009 (ip), vehicle: saline with Tween-80); 109 % of control and 119 % of control (dose: 50.0 mg/kg/injection, schedule: Q01DX009 (ip), vehicle: saline with Tween-80); 117 % of control (dose: 100.0 mg/kg/injection, schedule: Q01DX009 (ip), vehicle: saline with Tween-80); 119 % of control (dose: 200.0 mg/kg/injection, schedule: Q01DX009 (ip), vehicle: saline with Tween-80).
Consider `COc1ccc2ncc(COC(C)=O)c(COC(C)=O)c2c1`, for which the T/C is 99 % of control under setting [5], 98 % of control under setting [6] and 102 % of control under setting [7].
In the case of `CCOC(=O)c1c(N)ssc1=S`, the T/C is, setting by setting: under setting [1], 100 % of control; (dose: 100.0 mg/kg/injection, schedule: Q01DX009 (ip), vehicle: saline) 97 % of control; (dose: 200.0 mg/kg/injection, schedule: Q01DX009 (ip), vehicle: saline) 105 % of control.
Take `N#CCCN(C(=S)Nc1ccc(F)cc1)N1CCCCCC1`: the T/C (dose: 100.0 mg/kg/injection, schedule: Q04DX003 (ip), vehicle: saline) is 100 % of control; the T/C (dose: 200.0 mg/kg/injection, schedule: Q04DX003 (ip), vehicle: saline) was 107 % of control; the T/C (dose: 400.0 mg/kg/injection, schedule: Q04DX003 (ip), vehicle: saline) was 98 % of control.

The values above are taken from PubChem BioAssay AID330 (DTP/NCI, 2004).
